Assays:
[1] = Dissolution of sulfonamides in clove oil; conditions: concentration 5 mg/ml in clove oil
Method: Oil phase was prepared by sulfonamides dissolution in the clove oil. A 5 mg of drug was weighted in an eppendorf and 1 ml of clove oil was added. The tube was agitated for 1 min for obtaining of the drug solution (5 mg/ml). Aqueous phase were prepared by adding 1 g of Pluronic F127® in 8 mg of water. Then 1 ml of oil phase (drug dissolved in clove oil) was added to 9 ml of aqueous phase (Pluronic F127 in water) under constant ultrasound homogenization (amplitude 80%, continuous cycle n. 1) during 5 min in an ice bath at 5 °C to prevent heating of the dispersion.
The NEs were produced with 10% of oil phase.

Trypanosoma cruzi = system: Trypanosoma cruzi; parameters: method as in PMID 23815159; conditions: unformulated sulfonamides; cited from earlier work
[2] = system: T. cruzi clone Dm28c epimastigotes; assay: Growth inhibition of T. cruzi epimastigotes, resazurin microdilution, Dm28c; format: cell-based, Trypanosoma cruzi
Method: (§1) Epimastigote forms of the T. cruzi clone Dm28c ([…])[31] and Y([…])[32]^,[33] strains obtained from the Laboratory of Cellular Ultrastructure (both laboratories of the Oswaldo Cruz Foundation, Rio de Janeiro, Brazil) were used. The parasites were maintained in PBHIL medium supplemented with 10% bovine serum (FBS) at 28 °C[34].
(§2) The Minimum inhibitory concentration (MIC) for epimastigotes was performed with resazurin as an indicator of cellular metabolic function and it was determined as the lowest concentration capable of inhibiting in vitro growth of the parasites.

[3] = system: T. cruzi Dm28c strain epimastigotes; assay: Flow cytometry annexin V-FITC / propidium iodide, Dm28c; format: cell-based, Trypanosoma cruzi; conditions: 32 μM
Method: The analysis of the externalization of phosphatidylserine was performed using annexin V fluoresceine isothiocyanate (AV FITC) and propidium iodide, PI (Santa Cruz Biotechonology, Santa Cruz, CA). The cells were analysed by flow cytometry (FACS Calibur-Beckton-Dickinson), 50,000 events were analysed by the Paint-a-gate program and values were expressed as percentage of cells positive for a given marker relative to the total number of cells: FITC-labelled cells […], PI-labelled cells […], and cells with ruptured cell membrane (necrotic cells will be double-labelled).

[4] = system: T. cruzi Y strain epimastigotes; assay: Growth inhibition of T. cruzi epimastigotes, resazurin microdilution, Y strain; format: cell-based; conditions: Trypanosoma cruzi; TcY epimastigotes, drug nanoemulsions; read-out: IC90 (concentration which reduced the proliferation of epimastigotes by 90%)
Method: as §1, §2

dissolution in clove oil [1]	Structure (SMILES)	in vivo anti-trypanosomal effects (Trypanosoma cruzi)	other results
dissolved efficiently	NS(=O)(=O)c1nnc(NC(=O)Cc2ccc(Cl)cc2)s1 [5B]	did not show in vivo anti-trypanosomal effects	
dissolved efficiently	NS(=O)(=O)c1nnc(NC(=O)Cc2ccccc2Br)s1 [5C]	did not show in vivo anti-trypanosomal effects	
dissolved efficiently	COc1ccc(CC(=O)Nc2nnc(S(N)(=O)=O)s2)cc1 [5D]	did not show in vivo anti-trypanosomal effects	

More lines, now with the values behind:

Structure (SMILES)	dissolution in clove oil [1]	in vivo anti-trypanosomal effects (Trypanosoma cruzi)	other results
NS(=O)(=O)c1ccc(NC(=O)Cc2ccc(Cl)cc2)c(F)c1 [3F]	dissolved efficiently	did not show in vivo anti-trypanosomal effects	
NS(=O)(=O)c1ccc(NC(=O)Cc2ccccc2Br)c(F)c1 [3G]	dissolved efficiently	did not show in vivo anti-trypanosomal effects	
NS(=O)(=O)c1ccc(CCNC(=O)Cc2ccccc2Br)cc1 [3W]	dissolved efficiently	did not show in vivo anti-trypanosomal effects	
O=C(Cn1ccnc1[N+](=O)[O-])NCc1ccccc1 [BZN, 2-nitro-imidazole-(N-benzil-2-nitro-1imidazoleacetamide)]			IC50 ([2]; Trypanosoma cruzi, read-out: IC50 (concentration which reduced the proliferation of epimastigotes by 50%), Tc DM28c epimastigotes, drug nanoemulsions): 20.6 µM; IC90 ([2]; Trypanosoma cruzi, Tc DM28c epimastigotes, drug nanoemulsions, read-out: IC90 (concentration which reduced the proliferation of epimastigotes by 90%)): > 128 µM; SI (selectivity index) ([2]; both strains (DM28c and Y), CC50 RAW / IC50): 5–5.8; cell death by necrosis (propidium iodide) [3]: 51.16%; IC90 [4]: > 128 µM

— publication PMC7011998 (Journal of Enzyme Inhibition and Medicinal Chemistry, 2017)
